In publication PMC2739159, “Evidence for inhibition of cholinesterases in insect and mammalian nervous systems by the insect repellent deet” (BMC Biology, 2009):

Key:
HuBChE = target: T1, HuBChE (Homo sapiens, UniProt P06276); assay: Ellman assay, […] nm; global fit of hydrolysis inhibition and carbamoylation; type: biochemical; settings: read-out: HuBChE (BTCh)
T1 construct: gene BCHE; native human enzyme, commercial (Sigma Chemical Co.)

DmAChE = target: T2, DmAChE (Drosophila melanogaster, UniProt P07140); assay: as above; type: biochemical; settings: read-out: DmAChE (ATCh)
T2 construct: gene Ace

`CCN(CC)C(=O)c1cccc(C)c1` [deet, N,N-Diethyl-3-methylbenzamide] was tested, and the Ki (HuBChE) was 370 ± 50 µM and the Ki (DmAChE) was 1020 ± 30 µM.
